Our source for the IC50 values is US11753403B2, “EIF4E inhibitors and uses thereof” (PIC Therapeutics, Inc., priority 2020, dated 2023).

Chain of Human eIF4E (aa 28-217) / biotin labeled 4G2 peptide (P06730 28-217): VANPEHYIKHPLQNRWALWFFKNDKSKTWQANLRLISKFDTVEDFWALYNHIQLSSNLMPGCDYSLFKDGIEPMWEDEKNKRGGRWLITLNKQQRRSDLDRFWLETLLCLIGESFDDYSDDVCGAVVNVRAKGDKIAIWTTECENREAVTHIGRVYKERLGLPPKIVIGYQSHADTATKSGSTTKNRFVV

In the assay the target is Human eIF4E (aa 28-217) / biotin labeled 4G2 peptide (Homo sapiens (Human), UniProt P06730). The assay is described as follows: Human eIF4E/4G2 binding assay (TR-FRET). Conditions: Human eIF4E/4G2 TR-FRET binding assay; head says IC50, legend says EC50. The procedure:
Example 5. Compound Testing in Human eIF4E/4G2 Binding Assay
Human eIF4E (aa 28-217) with a C-terminal His-tag was expressed in E. coli in inclusion bodies. The protein was solubilized with 8 M urea and purified under denaturing conditions using nickel-charged HisTrap HP columns (GE Healthcare). The purified protein was then refolded by diluting in 20 mM Hepes pH 7.0, 0.5 M NaCl, 1 mM DTT, 1 mM EDTA, 0.5 M arginine plus 6 M urea, and then dialyzing overnight into the same buffer without the urea. The protein was further dialyzed into 20 mM Hepes, pH 6.5, 50 mM NaCl, 1 mM EDTA, 1 mM DTT, and concentrated using Hitrap SP sepharose FF columns (GE Healthcare). The concentrated protein was dialyzed into 20 mM Hepes, pH 7.0, 0.5M NaCl, 5 mM DTT and 10% glycerol, and stored at −80° C. until use.
Test compounds (3.43 mM stock in DMSO) were diluted 2-fold in series in DMSO (10 concentration points). Compound solutions (1.2 μl/well) were added into black 384-well polypropylene microplates (Matrix, Thermal Scientific). Twenty-two microliters per well of Assay Buffer (50 mM NaPi, pH 6.5, 50 mM KCl, 1 mM DTT and 0.5 mg/ml gamma globulin) and eight microliters per well of 82.5 nM purified eIF4E in Assay Buffer were added. The samples were incubated at room temperature (20-23° C.) for 4 hours. Biotin labeled 4G2 peptide (Ac-Lys-Gln-Tyr-Asp-Arg-Glu-Phe-Leu-Leu-Asp-Phe-Gln-Phe-Met-Pro-Lys(Aha-Bio)-NH2, 1.75 μM stock in DMSO) was diluted to 0.14 μM in Assay Buffer (without DTT) and 5 μl/well was added. The samples were incubated at room temperature for 20 min. Five microliters per well of 6.4 nM Eu-streptavidin (Eu-SA, Perkin Elmer) and 80 nM Allophycocyanin (APC)-anti His antibody (Columbia Biosciences) in Assay Buffer (without DTT) were then added and the samples were incubated at room temperature for 20 min.
Assay signals were monitored by reading excitation at 340 nm and emission fluorescence at 615 nm and 665 nm on an Envision reader (Perkin Elmer). Normalized TR-FRET (time-resolved fluorescence resonance energy transfer) assay signal (Rn) was calculated by the formula: Rn=[(A−Ba−C×D)/(D−Bd)]×(Dc−Bd) Where A is the fluorescence intensity of the sample at 665 nm, • D is the fluorescence intensity of the sample at 615 nm, • Ba and Bd are plate backgrounds at 665 nm and 615 nm, respectively, • Dc is the fluorescence intensity of 0.78 nM Eu-SA in the assay buffer at 615 nm The cross-talk factor (C) is determined by the following formula: C=(Ac−Ba)/(Dc−Bd) Where Ac is the fluorescence intensity of 0.78 nM Eu-SA in the assay buffer at 665 nm.
IC50 values were calculated using xLFit program (IDBS). Table 2 below lists EC50 of some compounds, wherein A represents EC50≤1 uM; B represents 1 uM<EC50≤10 uM; and C represents EC50>10 uM.
On the technique in general: In TR-FRET formats the signal depends on donor and acceptor labels being close together.
The compound `COCc1sc(N(CCC(=O)O)Cc2ccccc2)nc1-c1ccc(Cl)c(Cl)c1` [I-120, 3-(benzyl(4-(3,4-dichlorophenyl)-5-(methoxymethyl)thiazol-2-yl)amino)propanoic acid] registered an IC50 of 1000 to 10000 nM. As to `Cc1ccc(-c2nc(N(CCC(=O)O)Cc3ccccc3)sc2C(C)C)cc1C` [I-75], the IC50 fell in the range of 1000 to 10000 nM. Regarding `CSc1ccc(CC(CNc2nc(-c3ccc(Cl)c(Cl)c3)c(CC(C)C)s2)C(=O)O)cc1` (stereo not shown) [I-174], the IC50 was not above 1000 nM. In turn, `CC(C)Cc1sc(N(CCS(=O)(=O)NC(=O)CCN)Cc2ccccc2)nc1-c1ccc(Cl)c(Cl)c1` [I-188] yielded an IC50 of more than 10000 nM.

`CC(C)Cc1sc(NCC(Cc2cccc3cc[nH]c23)C(=O)O)nc1-c1ccc(Cl)c(Cl)c1` (stereo not shown) [I-24]: the IC50 fell in the range of 1000 to 10000 nM. In turn, `CC(C)Cc1sc(NCC(Cc2c[nH]c3ccccc23)C(=O)O)nc1-c1ccc(Cl)c(Cl)c1` (stereo not shown) [I-26] displayed an IC50 of 1000 to 10000 nM. With `Cn1nnnc1-c1sc(Nc2ncccc2C(=O)O)nc1-c1ccc(Cl)c(Cl)c1` [I-257, 2-(4-(3,4-dichlorophenyl)-5-(1-methyl-1H-tetrazol-5-yl)thiazol-2-ylamino)nicotinic acid] the figure was not above 1000 nM; with `CC(C)c1sc(Nc2ncc(C(F)(F)F)cc2C(=O)O)nc1-c1nc2ccccc2s1` [I-320, 2-(4-(benzo[d]thiazol-2-yl)-5-isopropylthiazol-2-ylamino)-5-(trifluoromethyl)nicotinic acid], not above 1000 nM; with `CC(C)Cc1sc(N(CCC(=O)O)Cc2ccccc2)nc1-c1ccc(-c2ccc(F)cc2)cc1` [I-101, 3-(benzyl(4-(4′-fluorobiphenyl-4-yl)-5-isobutylthiazol-2-yl)amino)propanoic acid], not above 1000 nM. The figure for `CC(C)Cc1sc(N2CCN(C(=O)c3cccs3)C(C(=O)O)C2)nc1-c1ccc(Cl)c(Cl)c1` (stereo not shown) [I-248] is not above 1000 nM; for `CC(C)c1sc(Nc2ncc(Cc3ccccc3)cc2C(=O)O)nc1-c1ccc(Cl)c(Cl)c1` [I-264] it is not above 1000 nM. The figure for `CC(C)Cc1sc(N(CCC(=O)O)Cc2ccccc2)nc1-c1ccc(-c2ccsc2)cc1` [I-126, 3-(benzyl(5-isobutyl-4-(4-(thiophen-3-yl)phenyl)thiazol-2-yl)amino)propanoic acid] is not above 1000 nM. On to `CC(C)Cc1sc(N(CCCN(C)C)CCC(=O)O)nc1-c1ccc(Cl)c(Cl)c1` [I-71], for which the half-maximal inhibitory concentration (IC50) was more than 10000 nM. Turning to `Cn1nnnc1-c1sc(Nc2ccsc2C(=O)O)nc1-c1ccc(Cl)c(Cl)c1` [I-269, 3-(4-(3,4-dichlorophenyl)-5-(1-methyl-1H-tetrazol-5-yl)thiazol-2-ylamino)thiophene-2-carboxylic acid], the concentration for half-maximal inhibition (IC50) was 1000 to 10000 nM. In turn, `Cc1ccc(CC(CNc2nc(-c3ccc(Cl)c(Cl)c3)c(CC(C)C)s2)C(=O)O)c(C)n1` (stereo not shown) [I-157] showed an IC50 of 1000 to 10000 nM. For the compound `CC(C)Cc1sc(N(CCC(=O)NCc2ncc[nH]2)Cc2ccccc2)nc1-c1ccc(Cl)c(Cl)c1` [I-195], the IC50 was more than 10000 nM. With `CNC(=O)N1CCN(c2nc(-c3ccc(Cl)c(Cl)c3)c(CC(C)C)s2)CC1C(=O)O` (stereo not shown) [I-251, 4-(4-(3,4-dichlorophenyl)-5-isobutylthiazol-2-yl)-1-(methylcarbamoyl)piperazine-2-carboxylic acid] the figure was 1000 to 10000 nM; with `CC(C)c1sc(Nc2ncc(-c3ccccc3)cc2C(=O)O)nc1-c1ccc(Cl)c(C(F)(F)F)c1` [I-262, 2-(4-(4-chloro-3-(trifluoromethyl)phenyl)-5-isopropylthiazol-2-ylamino)-5-phenylnicotinic acid], not above 1000 nM. The figure for `CC(C)Cc1sc(N(CCC(=O)O)Cc2ccncc2)nc1-c1ccc(Cl)c(Cl)c1` [I-63] is 1000 to 10000 nM; for `CC(C)Cc1sc(NCC(Cc2ccncc2)C(=O)O)nc1-c1ccc(Cl)c(Cl)c1` (stereo not shown) [I-152] it is 1000 to 10000 nM. Compound `CC(C)Cc1sc(Nc2cc(NC(=O)c3ccccc3)cc(C(=O)O)c2)nc1-c1ccc(Cl)c(Cl)c1` [I-217] gave a half-maximal inhibitory concentration (IC50) not above 1000 nM.

Take `CC(C)c1sc(Nc2ncc(Cc3ccccc3)cc2C(=O)O)nc1-c1ccc(Cl)c(C(F)(F)F)c1` [I-265]: the IC50 is not above 1000 nM. In turn, `CC(C)Cc1sc(NCC(Cc2ccccn2)C(=O)O)nc1-c1ccc(Cl)c(Cl)c1` (stereo not shown) [I-158] returned an IC50 of 1000 to 10000 nM. With `COc1cccc(-c2nc(NCC(Cc3cccc(O)c3)C(=O)O)sc2C(C)C)c1` (stereo not shown) [I-31] the figure was more than 10000 nM.

In the case of `CC(C)Cc1sc(N(CCC(=O)N2CCNCC2)Cc2ccccc2)nc1-c1ccc(Cl)c(Cl)c1` [I-134], the half-maximal inhibitory concentration (IC50) is 1000 to 10000 nM. In turn, `CC(C)Cc1sc(NCc2cccnc2O)nc1-c1ccc(Cl)c(Cl)c1` [I-202] showed a half-inhibitory concentration (IC50) of more than 10000 nM. The compound `CC(C)Cc1sc(Nc2cc(C(=O)O)ccc2-c2ccccc2)nc1-c1ccc(Cl)c(Cl)c1` [I-255] came in with a half-inhibitory concentration (IC50) of 1000 to 10000 nM. Take `CC(C)Cc1sc(Nc2ccc(O)c(C(=O)O)c2)nc1-c1ccc(Cl)c(Cl)c1` [I-207, 5-(4-(3,4-dichlorophenyl)-5-isobutylthiazol-2-ylamino)-2-hydroxybenzoic acid]: the IC50 lay within 1000 to 10000 nM. With `COc1ccc(-c2nc(Nc3ncc(-c4cccs4)cc3C(=O)O)sc2C(C)C)cc1Cl` [I-324] the figure was not above 1000 nM; with `O=C(O)C(CCc1ccccc1)CNc1nc(-c2ccc(Cl)c(Cl)c2)c(C2CC2)s1` (stereo not shown) [I-15], 1000 to 10000 nM. The compound `CC(C)c1sc(NCC(Cc2c[nH]c3ccccc23)C(=O)O)nc1-c1ccc(Cl)c(Cl)c1` (stereo not shown) [I-9] came in with a 50% inhibitory concentration (IC50) of 1000 to 10000 nM.

In the case of `CC(C)c1sc(N(CCC(=O)O)Cc2ccccc2)nc1-c1ccc(F)c(F)c1` [I-77], the 50% inhibitory concentration (IC50) is 1000 to 10000 nM.

For `O=C(O)c1sc(C2CCCC2)cc1Nc1nc(CCc2ccccc2)c(-c2ccc(Cl)c(Cl)c2)s1` [I-309], the concentration for half-maximal inhibition (IC50) was not above 1000 nM.

`CC(C)Cc1sc(N(CCC(=O)O)Cc2ccccc2)nc1-c1cc(F)c(F)c(F)c1` [I-81]: the 50% inhibitory concentration (IC50) lay within 1000 to 10000 nM. With `CC(C)c1sc(NCC(CCc2ccccc2)C(=O)O)nc1-c1ccc(Cl)cc1` (stereo not shown) [I-43] the figure was 1000 to 10000 nM. `CC(C)Cc1sc(NCC(Cc2ccc(S(C)(=O)=O)cc2)C(=O)O)nc1-c1ccc(Cl)c(Cl)c1` (stereo not shown) [I-175] registered an IC50 of 1000 to 10000 nM. On to `CC(C)Cc1sc(N2CCN(C(=O)CCN)C(C(=O)O)C2)nc1-c1ccc(Cl)c(Cl)c1` (stereo not shown) [I-199, 1-(3-aminopropanoyl)-4-(4-(3,4-dichlorophenyl)-5-isobutylthiazol-2-yl)piperazine-2-carboxylic acid], for which the IC50 is more than 10000 nM. As to `CC(C)c1sc(Nc2ncc(C3CC3)cc2C(=O)O)nc1-c1ccc(Cl)c(Cl)c1` [I-283], the IC50 is not above 1000 nM. For `CC(C)c1sc(NCC(Cc2cccc(O)c2)C(=O)O)nc1-c1ccc(Cl)cc1` (stereo not shown) [I-41], the IC50 lay within 1000 to 10000 nM. The figure for `CC(C)Cc1sc(Nc2cc(-c3cccnc3)sc2C(=O)O)nc1-c1ccc(Cl)c(Cl)c1` [I-273] is not above 1000 nM. Regarding `CSc1cccc(CC(CNc2nc(-c3ccc(Cl)c(Cl)c3)c(CC(C)C)s2)C(=O)O)c1` (stereo not shown) [I-171], the concentration for half-maximal inhibition (IC50) is not above 1000 nM.

For the compound `CC(C)Cc1sc(Nc2ccc(-c3ccccc3)c(C(=O)O)c2)nc1-c1ccc(Cl)c(Cl)c1` [I-216], the half-inhibitory concentration (IC50) was not above 1000 nM.

`CCOc1ccc(-c2nc(Nc3ncc(-c4cccs4)cc3C(=O)O)sc2CC(C)C)cc1Cl` [I-330] displayed an IC50 not above 1000 nM. The figure for `CC(C)c1sc(NCC(Cc2c[nH]c3ccccc23)C(=O)O)nc1-c1ccc(Cl)cc1` (stereo not shown) [I-45] is 1000 to 10000 nM; for `CC(C)Cc1sc(N(CCC(=O)O)CC2CCCCC2)nc1-c1ccc(Cl)c(Cl)c1` [I-87] it is not above 1000 nM; for `CC(C)Cc1sc(NCC(Cc2cccc(C(=O)N(C)C)c2)C(=O)O)nc1-c1ccc(Cl)c(Cl)c1` (stereo not shown) [I-168, 3-(4-(3,4-dichlorophenyl)-5-isobutylthiazol-2-ylamino)-2-(3-(dimethylcarbamoyl)benzyl)propanoic acid] it is 1000 to 10000 nM. The figure for `CC(C)Cc1sc(Nc2cc(-c3ccc(F)cc3)sc2C(=O)O)nc1-c1ccc(Cl)c(Cl)c1` [I-271] is not above 1000 nM; for `CC(C)Cc1sc(Nc2ncc(-c3cccs3)cc2C(=O)O)nc1-c1ccc(OCCO)c(Cl)c1` [I-331] it is not above 1000 nM; for `CC(C)CCc1sc(NCC(Cc2ccccc2)C(=O)O)nc1-c1ccc(Cl)c(Cl)c1` (stereo not shown) [I-180] it is not above 1000 nM.

For orientation: IC50 means the midpoint of a concentration-inhibition curve. Low readings indicate greater potency in that assay, high ones weaker potency in that assay.
